Test results taken from the supplement of paper PMC10307832.

What was measured:
Experiment in all cases: relative viability (nuclei count vs DMSO), 5 days (fraction); higher = more cells survive
COR-L23 = system: COR-L23
Procedure, shortened: (§1)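 Medians of duplicate plates are given as relative viability. That measure is the nuclei count in treated wells divided by the count in vehicle wells. Counts were taken on 4× images of lung cancer cell lines in 1536-well plates, 5 days after pin-tool dosing the day after seeding with one drug alone or a fixed anchor-drug dose plus five library-drug doses (not always all listed) in √10 steps.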

ChaGo-K-1 = system: ChaGo-K-1
Procedure, shortened: as §1

EMC-BAC-2 = system: EMC-BAC-2
Procedure, shortened: as §1

HARA = system: HARA
Procedure, shortened: as §1

HCC-15 = system: HCC-15
Procedure, shortened: as §1

HCC-366 = system: HCC-366
Procedure, shortened: as §1

HCC-78 = system: HCC-78
Procedure, shortened: as §1

HOP-62 = system: HOP-62
Procedure, shortened: as §1

LC-2-ad = system: LC-2-ad
Procedure, shortened: as §1

NCI-H1395 = system: NCI-H1395
Procedure, shortened: as §1

NCI-H1793 = system: NCI-H1793
Procedure, shortened: as §1

NCI-H1944 = system: NCI-H1944
Procedure, shortened: as §1

NCI-H1993 = system: NCI-H1993
Procedure, shortened: as §1

NCI-H2023 = system: NCI-H2023
Procedure, shortened: as §1

NCI-H2126 = system: NCI-H2126
Procedure, shortened: as §1

NCI-H2228 = system: NCI-H2228
Procedure, shortened: as §1

NCI-H23 = system: NCI-H23
Procedure, shortened: as §1

NCI-H2405 = system: NCI-H2405
Procedure, shortened: as §1

NCI-H838 = system: NCI-H838
Procedure, shortened: as §1

SK-LU-1 = system: SK-LU-1
Procedure, shortened: as §1

Nc1ccn([C@@H]2O[C@H](CO)[C@@H](O)[C@@H]2O)c(=O)n1 [Cytarabine] + CC1(C)CCC(c2ccc(Cl)cc2)=C(CN2CCN(c3ccc(C(=O)NS(=O)(=O)c4ccc(N[C@H](CCN5CCOCC5)CSc5ccccc5)c(S(=O)(=O)C(F)(F)F)c4)cc3)CC2)C1 [Navitoclax] (partner 0.5 µM)
relative viability (COR-L23; first compound 0.005 µM): 0.944 | relative viability (COR-L23; first compound 0.01581 µM): 0.842 | relative viability (COR-L23; first compound 0.05 µM): 0.555 | relative viability (COR-L23; first compound 0.1581 µM): 0.168 | relative viability (COR-L23; first compound 0.5 µM): 0.129 | relative viability (ChaGo-K-1; first compound 0.005 µM): 0.74 | relative viability (ChaGo-K-1; first compound 0.01581 µM): 0.505 | relative viability (ChaGo-K-1; first compound 0.05 µM): 0.453 | relative viability (ChaGo-K-1; first compound 0.1581 µM): 0.364 | relative viability (ChaGo-K-1; first compound 0.5 µM): 0.37 | relative viability (EMC-BAC-2; first compound 0.005 µM): 0.843 | relative viability (EMC-BAC-2; first compound 0.01581 µM): 0.987 | relative viability (EMC-BAC-2; first compound 0.05 µM): 0.789 | relative viability (EMC-BAC-2; first compound 0.1581 µM): 0.243 | relative viability (EMC-BAC-2; first compound 0.5 µM): 0.19 | relative viability (HARA; first compound 0.005 µM): 1.09 | relative viability (HARA; first compound 0.01581 µM): 0.593 | relative viability (HARA; first compound 0.05 µM): 0.302 | relative viability (HARA; first compound 0.1581 µM): 0.178 | relative viability (HARA; first compound 0.5 µM): 0.131 | relative viability (HCC-15; first compound 0.005 µM): 0.669 | relative viability (HCC-15; first compound 0.01581 µM): 0.733 | relative viability (HCC-15; first compound 0.05 µM): 0.609 | relative viability (HCC-15; first compound 0.1581 µM): 0.562 | relative viability (HCC-15; first compound 0.5 µM): 0.43 | relative viability (HCC-366; first compound 0.005 µM): 0.889 | relative viability (HCC-366; first compound 0.01581 µM): 0.918 | relative viability (HCC-366; first compound 0.05 µM): 0.328 | relative viability (HCC-366; first compound 0.1581 µM): 0.0444 | relative viability (HCC-366; first compound 0.5 µM): 0.0177 | relative viability (HCC-78; first compound 0.005 µM): 0.879 | relative viability (HCC-78; first compound 0.01581 µM): 0.652 | relative viability (HCC-78; first compound 0.05 µM): 0.684 | relative viability (HCC-78; first compound 0.1581 µM): 0.364 | relative viability (HCC-78; first compound 0.5 µM): 0.219 | relative viability (HOP-62; first compound 0.005 µM): 0.946 | relative viability (HOP-62; first compound 0.01581 µM): 0.405 | relative viability (HOP-62; first compound 0.05 µM): 0.342 | relative viability (HOP-62; first compound 0.1581 µM): 0.104 | relative viability (HOP-62; first compound 0.5 µM): 0.0809 | relative viability (LC-2-ad; first compound 0.005 µM): 0.385 | relative viability (LC-2-ad; first compound 0.01581 µM): 0.328 | relative viability (LC-2-ad; first compound 0.05 µM): 0.268 | relative viability (LC-2-ad; first compound 0.1581 µM): 0.2 | relative viability (LC-2-ad; first compound 0.5 µM): 0.188 | relative viability (NCI-H1395; first compound 0.005 µM): 1.2 | relative viability (NCI-H1395; first compound 0.01581 µM): 0.849 | relative viability (NCI-H1395; first compound 0.05 µM): 0.65 | relative viability (NCI-H1395; first compound 0.1581 µM): 0.48 | relative viability (NCI-H1395; first compound 0.5 µM): 0.368 | relative viability (NCI-H1793; first compound 0.005 µM): 0.273 | relative viability (NCI-H1793; first compound 0.01581 µM): 0.333 | relative viability (NCI-H1793; first compound 0.05 µM): 0.271 | relative viability (NCI-H1793; first compound 0.1581 µM): 0.261 | relative viability (NCI-H1793; first compound 0.5 µM): 0.244 | relative viability (NCI-H1944; first compound 0.005 µM): 0.605 | relative viability (NCI-H1944; first compound 0.01581 µM): 0.363 | relative viability (NCI-H1944; first compound 0.05 µM): 0.268 | relative viability (NCI-H1944; first compound 0.1581 µM): 0.198 | relative viability (NCI-H1944; first compound 0.5 µM): 0.201 | relative viability (NCI-H1993; first compound 0.005 µM): 0.92 | relative viability (NCI-H1993; first compound 0.01581 µM): 0.949 | relative viability (NCI-H1993; first compound 0.05 µM): 0.721 | relative viability (NCI-H1993; first compound 0.1581 µM): 0.548 | relative viability (NCI-H1993; first compound 0.5 µM): 0.624 | relative viability (NCI-H2023; first compound 0.005 µM): 0.549 | relative viability (NCI-H2023; first compound 0.01581 µM): 0.356 | relative viability (NCI-H2023; first compound 0.05 µM): 0.195 | relative viability (NCI-H2023; first compound 0.1581 µM): 0.108 | relative viability (NCI-H2023; first compound 0.5 µM): 0.103 | relative viability (NCI-H2126; first compound 0.005 µM): 0.866 | relative viability (NCI-H2126; first compound 0.01581 µM): 0.705 | relative viability (NCI-H2126; first compound 0.05 µM): 0.679 | relative viability (NCI-H2126; first compound 0.1581 µM): 0.53 | relative viability (NCI-H2126; first compound 0.5 µM): 0.454 | relative viability (NCI-H2228; first compound 0.005 µM): 0.504 | relative viability (NCI-H2228; first compound 0.01581 µM): 0.544 | relative viability (NCI-H2228; first compound 0.05 µM): 0.0741 | relative viability (NCI-H2228; first compound 0.1581 µM): 0.0929 | relative viability (NCI-H2228; first compound 0.5 µM): 0.0928 | relative viability (NCI-H23; first compound 0.005 µM): 0.753 | relative viability (NCI-H23; first compound 0.01581 µM): 0.551 | relative viability (NCI-H23; first compound 0.05 µM): 0.394 | relative viability (NCI-H23; first compound 0.1581 µM): 0.206 | relative viability (NCI-H23; first compound 0.5 µM): 0.173 | relative viability (NCI-H2405; first compound 0.005 µM): 0.851 | relative viability (NCI-H2405; first compound 0.01581 µM): 0.671 | relative viability (NCI-H2405; first compound 0.05 µM): 0.424 | relative viability (NCI-H2405; first compound 0.1581 µM): 0.373 | relative viability (NCI-H2405; first compound 0.5 µM): 0.114 | relative viability (NCI-H838; first compound 0.005 µM): 1.29 | relative viability (NCI-H838; first compound 0.01581 µM): 1.18 | relative viability (NCI-H838; first compound 0.05 µM): 0.816 | relative viability (NCI-H838; first compound 0.1581 µM): 0.446 | relative viability (NCI-H838; first compound 0.5 µM): 0.262 | relative viability (SK-LU-1; first compound 0.005 µM): 0.775 | relative viability (SK-LU-1; first compound 0.01581 µM): 0.703 | relative viability (SK-LU-1; first compound 0.05 µM): 0.34 | relative viability (SK-LU-1; first compound 0.1581 µM): 0.266 | relative viability (SK-LU-1; first compound 0.5 µM): 0.179
